Measurements: US9850206B2, “S1P and/or ATX modulating agents” (BIOGEN MA INC., priority 2012, dated 2017)
Like-named read-outs stand apart in the source and are kept apart here.

Experiments:
S1P1 = S1P1 (Homo sapiens, UniProt P21453); test: S1P receptor activity assay (calcium flux, FLIPR TETRA), S1P1; assay type: cell-based
Description: (§1) Agonist percentage activation determinations were obtained by assaying sample compounds and referencing the Emax control for each receptor profiled. Antagonist percentage inhibition determinations were obtained by assaying sample compounds and referencing the control EC80 wells for each receptor profiled. The samples were run using a “Single Addition” assay protocol for the agonist and antagonist assay run. The protocol design was as follows:
(§2) Master stock solution: Unless specified otherwise, all sample compounds were diluted in 100% anhydrous DMSO including all serial dilutions. All control wells contained identical solvent final concentrations as did the sample compound wells.
(§3) Compound plate for assay: The sample compounds were transferred from a master stock solution into a daughter plate that was used in the assay. Each sample compound was diluted into assay buffer (1×HBSS with 20 mM HEPES and 2.5 mM Probenecid) at an appropriate concentration to obtain final concentrations.
(§4) Sample compounds were plated in an eight-point, four-fold dilution series in duplicate with a top concentration of 10 μM. The concentrations described here reflect the final concentration of the compounds during the antagonist assay.
(§5) Reference agonists were handled as mentioned above serving as assay control. The reference agonists were handled as described above for Emax.
(§6) Assay was read for 180 seconds using the […] (This assay run added sample compounds and reference agonist to respective wells). At the completion of the first “Single Addition” assay run, assay plate was removed from the […] and placed at 25° C. for seven (7) minutes.
(§7) Using the EC80 values determined during the agonist assay, stimulated all pre-incubated sample compound and reference antagonist (if applicable) wells with EC80 of reference agonist. Read for 180 seconds using the […] (This assay added reference agonist to respective wells—then fluorescence measurements were collected to calculate percentage inhibition values).
(§8) All plates were subjected to appropriate baseline corrections. Once baseline corrections were processed, maximum fluorescence values were exported and data manipulated to calculate percentage activation, percentage inhibition and Z′.

S1P4 = molecular target: T1, S1P4 (Homo sapiens, UniProt O95977); test: S1P receptor activity assay (calcium flux, FLIPR TETRA), S1P4; assay type: cell-based
T1 sequence (O95977 1-384): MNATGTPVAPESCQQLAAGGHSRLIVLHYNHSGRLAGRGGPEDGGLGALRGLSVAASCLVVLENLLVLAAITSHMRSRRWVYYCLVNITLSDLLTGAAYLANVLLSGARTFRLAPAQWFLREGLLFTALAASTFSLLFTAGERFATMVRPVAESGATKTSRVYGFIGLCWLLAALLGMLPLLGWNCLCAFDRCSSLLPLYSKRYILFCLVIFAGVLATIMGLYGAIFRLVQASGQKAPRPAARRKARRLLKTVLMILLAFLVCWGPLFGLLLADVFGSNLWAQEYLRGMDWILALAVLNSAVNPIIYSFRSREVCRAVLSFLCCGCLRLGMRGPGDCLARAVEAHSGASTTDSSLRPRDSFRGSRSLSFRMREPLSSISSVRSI
Description: as §1, §2, §3, §4, §5, §6, §7, §8

S1P5 = S1P5 (Homo sapiens, UniProt Q9H228); test: S1P receptor activity assay (calcium flux, FLIPR TETRA), S1P5; assay type: cell-based
Description: as §1, §2, §3, §4, §5, §6, §7, §8

Human ATX protein = molecular target: T2, Human ATX protein (Homo sapiens, UniProt Q13822); test: Autotaxin (ATX) FRET assay with FS-3 substrate; assay type: biochemical
T2 construct: made in house
Description: ATX (Autotaxin) is a 125 KDa glycoprotein with lysophospholipase D (LPLD) activity that generates the bioactive lipid lysophosphatidic acid (LPA) from lysophosphatidylcholine (LPC). The ATX biochemical assay utilizes a FRET (fluorescence resonance energy transfer) technology platform. […] ATX catalyzes the hydrolysis of the substrate which separates the dabsyl quencher from the fluorescein reporter, which becomes fluorescent. The reaction is monitored by a SpectraMax M5 (Molecular Devices, Sunnyvale, Calif.) with at excitation wavelength 485 nm and emission wavelength 535 nm.
Fatty acid free-BSA (Sigma A8806): 10 mg/mL in H2O, stored at 4° C.
2×ATX assay buffer: 100 mM Tris, 280 mM NaCl, 10 mM KCl, 2 mM CaCl2, 2 mM MgCl2, pH 7.4.
Human ATX protein: expressed and purified in house. Stored at −80° C.
Substrate FS-3 (Echelon, L-2000): 100 μg in 77.74 μL H2O (1 mM stock), stored at −20° C.
Compound dilution—All compounds were provided at 10 mM in 100% DMSO. In the first well, 2 μL of 10 mM compound was added to 78 μL of DMSO (1:40 dilution). In subsequent wells 3-fold dilution (total 10 dilutions) were performed.
1×ATX assay buffer was made up with a final concentration of 1 mg/mL fatty acid free-BSA using 2×ATX assay buffer, 10 mg/ml fatty acid free-BSA and ddH2O.
38 μL was added per well to the assay plate. The final concentration of ATX in the reaction as 1.0 μg/mL.
2 μL per well of compounds was transferred to provide the desired concentration. The plate was centrifuged, then incubated at room temperature for 30 minutes on the shaker.
FS-3 was diluted with 1×ATX assay buffer to a concentration of FS-3 of 10 μM (5×). Then, 10 μL was added per well to the assay plate. The final concentration of FS-3 in the reaction was 2 μM. The plate was centrifuged. The plate was kept shaking at room temperature for 2 hours. Because FS-3 substrate is light sensitive, plates were kept covered and protected from light.

[1] = system: OPCs (oligodendrocyte precursor cells); test: OPC differentiation assay; assay type: cell-based, Sprague Dawley rats; conditions: 2 μM and 20 μM, 3-day incubation
Protocol: Enriched populations of oligodendrocytes were grown from post-natal day 2 (P2) female Sprague Dawley rats. The forebrain was dissected out and placed in Hank's buffered saline solution (HBSS; Invitrogen, Grand Island, N.Y.). The tissue was cut into 1 mm fragments and incubated at 37° C. for 15 minutes in 0.01% trypsin and 10 μg/mL DNase. Dissociated cells were plated on poly-L-lysine-coated T75 tissue culture flasks and grown at 37° C. for 10 days in Dulbecco's modified Eagle's medium (DMEM) with 20% fetal calf serum (Invitrogen). A2B5+OPCs were collected by shaking the flask overnight at 200 rpm and 37° C., resulting in a 95% pure population.
For the differentiation assay, 2 μM and 20 μM antagonist or the same concentrations of vehicle (DMSO) were applied to OPCs cultured in CNTF/T3 containing media. After a 3-day incubation, […], cell were lysed and then subjected to MSD (Meso Scale Discovery-R) analysis. EC50 was calculated by Prism using a nonlinear sigmoidal dose-response curvecells. […] After centrifugation at 14,000 g for 15 minutes, the supernatants were boiled in Laemmli sample buffer, subjected to 4-20% SDS-PAGE, and analyzed by Western blotting with anti-MBP, anti-myelin-associated glycoprotein (MAG), or anti-beta actin antibodies. […]

[2] = calcium flux, top concentration 10 μM, the >5 μM sentence says only 'for S1P1', read-out: IC50 for S1P1 agonist activity
[3] = calcium flux, top concentration 10 μM, the >5 μM sentence says only 'for S1P4', read-out: IC50 for S1P4 agonist activity
[4] = calcium flux, top concentration 10 μM, read-out: IC50 for S1P5
[5] = FS-3 2 μM, ATX 1.0 μg/mL, 2 hours at room temperature, read-out: IC50 (ATX)

S1P5, sequence (Q9H228 whole entry): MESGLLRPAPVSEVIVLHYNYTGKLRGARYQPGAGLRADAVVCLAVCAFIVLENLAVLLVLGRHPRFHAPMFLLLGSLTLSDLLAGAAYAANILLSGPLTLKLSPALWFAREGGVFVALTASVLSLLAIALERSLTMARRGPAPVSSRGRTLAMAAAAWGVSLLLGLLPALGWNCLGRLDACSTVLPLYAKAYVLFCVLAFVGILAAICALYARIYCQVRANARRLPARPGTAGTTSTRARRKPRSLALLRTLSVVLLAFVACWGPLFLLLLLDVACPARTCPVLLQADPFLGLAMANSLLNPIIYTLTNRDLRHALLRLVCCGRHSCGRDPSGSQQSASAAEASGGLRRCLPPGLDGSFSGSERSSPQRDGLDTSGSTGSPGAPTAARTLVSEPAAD
S1P1, sequence (P21453 whole entry): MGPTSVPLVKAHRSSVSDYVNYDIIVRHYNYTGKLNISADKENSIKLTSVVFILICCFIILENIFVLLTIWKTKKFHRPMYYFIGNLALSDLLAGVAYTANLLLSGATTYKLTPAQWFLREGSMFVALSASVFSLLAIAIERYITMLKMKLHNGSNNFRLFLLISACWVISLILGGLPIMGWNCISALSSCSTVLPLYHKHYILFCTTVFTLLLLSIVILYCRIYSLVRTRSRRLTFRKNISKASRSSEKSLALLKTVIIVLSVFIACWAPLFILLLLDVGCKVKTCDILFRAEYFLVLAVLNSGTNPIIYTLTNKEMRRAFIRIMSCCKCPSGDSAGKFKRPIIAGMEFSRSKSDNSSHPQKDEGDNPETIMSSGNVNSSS

IC50 (S1P1; [2]) [µM] | IC50 (S1P4; [3]) [µM] | IC50 (S1P5; [4]) [µM] | IC50 (Human ATX protein; [5]) [µM] | SMILES | IC50 (S1P1) [µM] | IC50 (S1P4) [µM] | IC50 (S1P5) [µM] | IC50 (Human ATX protein) [µM] | result in the OPC assay [1]
– | – | – | – | CCCCCCCCOc1ccc(N2CCN(CCC(=O)O)CC2)cc1 [Example 14, 3-(4-(4-(Octyloxy)phenyl)piperazin-1-yl)propanoic acid] | > 5 | ≤ 2 | > 5 | > 10 | positive
– | – | – | – | CCCCCCCCOc1ccc(N2CCN(CC34CCC(C(=O)O)(CC3)CC4)CC2)cc1 [Example 16, 4-((4-(4-(Octyloxy)phenyl)piperazin-1-yl)methyl)bicyclo[2.2.2]octane-1-carboxylic acid] | > 5 | ≤ 5 | > 5 | ≤ 5 | positive
> 5 | ≤ 2 | ≤ 2 | > 10 | O=C(O)CCCCN1CCC(c2ccc(OC3CCC4(CCCC4)CC3)cc2)CC1 [Example 44, 5-(4-(4-(Spiro[4.5]decan-8-yloxy)phenyl)piperidin-1-yl)pentanoic acid] | – | – | – | – | –
≤ 2 | ≤ 2 | > 5 | 5 to 10 | CC(C)(C)[C@H]1CC[C@H](Oc2ccc(C3CCN(CCC(=O)O)CC3)cc2)CC1 [Example 46, 3-(4-(4-((trans-4-(tert-Butyl)cyclohexyl)oxy)phenyl)piperidin-1-yl)propanoic acid] | – | – | – | – | –
≤ 2 | ≤ 2 | ≤ 2 | ≤ 5 | CC(C)(C)[C@H]1CC[C@H](Oc2ccc(C3CCN(CCCC(=O)O)CC3)cc2)CC1 [Example 48, 4-(4-(4-((trans-4-(tert-Butyl)cyclohexyl)oxy)phenyl)piperidin-1-yl)butanoic acid] | – | – | – | – | –

SMILES | IC50 (S1P1; [2]) [µM] | IC50 (S1P4; [3]) [µM] | IC50 (S1P5; [4]) [µM] | IC50 (Human ATX protein; [5]) [µM] | IC50 (S1P1) [µM] | IC50 (S1P4) [µM] | IC50 (S1P5) [µM] | IC50 (Human ATX protein) [µM] | result in the OPC assay [1]
CC(C)(C)[C@H]1CC[C@H](Oc2ccc(C3=CCN(CCC(=O)O)CC3)cc2)CC1 [Example 45, 3-(4-(4-((trans-4-(tert-Butyl)cyclohexyl)oxy)phenyl)-5,6-dihydropyridin-1(2H)-yl)propanoic acid] | – | – | > 5 | 5 to 10 | 2 to 5 | ≤ 2 | – | – | –
CC(C)(C)[C@H]1CC[C@H](Oc2ccc(C3=CCN(CCCC(=O)O)CC3)cc2)CC1 [Example 47, 4-(4-(4-((trans-4-(tert-Butyl)cyclohexyl)oxy)phenyl)-5,6-dihydropyridin-1(2H)-yl)butanoic acid] | – | – | ≤ 2 | ≤ 5 | ≤ 2 | ≤ 2 | – | – | –
